Paper PMC2375326, “In vitro evaluation of amino acid prodrugs of novel antitumour 2-(4-amino-3-methylphenyl)benzothiazoles” (British Journal of Cancer, 2002)

What was measured:
LOX IMVI = experiment: NCI in vitro cytotoxicity assay (SRB), LOX IMVI; assay type: cell-based; details: Homo sapiens, 48 h exposure, sulforhodamine B assay, mean graph, read-out: Log10 GI50 (LOX IMVI) (converted)
Protocol: (§1) Cell culture and drug application procedures have been described previously ([Boyd and Paull, 1995]). Briefly, cell lines were inoculated into a series of 96-well microtiter plates, with varied seeding densities depending on growth characteristics of each cell line. Following a 24 h drug free incubation, test agents were added at five 10-fold dilutions with a maximum concentration of 100 μM. Cellular protein levels were determined after 48 h drug exposure by sulphorhodamine B colorimetry.

PC-3 = experiment: NCI in vitro cytotoxicity assay (SRB), PC-3; assay type: cell-based; details: Homo sapiens, 48 h exposure, sulforhodamine B assay, mean graph, read-out: Log10 GI50 (PC-3) (converted)
Protocol: as §1

MCF-7 cells = experiment: Prodrug uptake, conversion and metabolism (HPLC of media), MCF-7; assay type: in vitro ADME, human; details: prodrug 10 μM, days 1–7
Protocol: MCF-7 cells were seeded into 25 ml flasks at appropriate densities (5×10^5–5×10^6). After 24 h, medium was changed and drug introduced at a final concentration of 10 μM. Media samples, collected from flasks at time zero and 24 h intervals, were mixed with 1.5-fold volumes of high performance liquid chromatography (HPLC) grade acetonitrile to precipitate protein and centrifuged at 14 000 g for 5 min. Supernatants (600 μl) were mixed with 400 μl 10% acetonitrile in 1% acetic acid and analysed by HPLC. The system consisted of Beckman System Gold equipment (solvent module 128, autosampler 507e and multiple wavelength UV detector 168). Separation of parent compounds and biotransformation products was effected at room temperature on a Phenomenex Aqua C18 reversed-phase column (150×4.6 mm). The mobile phase was formed by increasing, then decreasing the acetonitrile concentration in 1% acetic acid over 20 min by mixing two solutions: acetonitrile-water-acetic acid (10 : 90 : 1, v v^−1) and acetonitrile-water-acetic acid (80 : 20 : 1 v v^−1) and delivered at a flow rate of 1 ml min^−1. Compounds were detected at 324 nm.

[1] = tested on: MCF-7 (ER+) human derived breast carcinoma cells; experiment: Growth inhibitory assay (MTT), MCF-7; assay type: cell-based; details: MCF7, ER+ MCF-7, 3 days (72 h) treatment, n=8, representative mean, ^a = biphasic dose response
Protocol: Prodrugs were prepared as 10 mM top stocks, dissolved in dimethylsulphoxide (DMSO) or sterile ddH2O, and stored at 4°C, protected from light for a maximum period of 4 weeks. MCF-7 (ER+) and MDA 468 (ER−) human derived breast carcinoma cells, cultivated at 37°C in an atmosphere of 5% CO2 in RPMI 1640 medium supplemented with 2 mM L-glutamine and 10% foetal calf serum, were routinely subcultured twice weekly to maintain continuous logarithmic growth. Cells were seeded into 96-well microtiter plates at a density of 5×10^3 per well and allowed 24 h to adhere before drugs were introduced (final concentration 0.1 nM–100 μM, n=8). Serial drug dilutions were prepared in medium immediately prior to each assay. Viable cell masses at the time of drug addition (time-zero), and following 72 h drug exposure were determined by cell-mediated 3-(4,5-dimethylthiazol-2-yl)-2,5-diphenyltetrazolium bromide (MTT) reduction. MTT was added to each well (final concentration 400 μg ml^−1) and plates were incubated at 37°C for 4 h to allow reduction of MTT by viable cell dehydrogenases to an insoluble formazan product. Well supernatants were aspirated and cellular formazan solubilised by addition of DMSO : glycine buffer (pH 10.5) (4 : 1). Cell growth as well as drug activity were determined by measuring absorbance at 550 nm using an Anthos Labtec systems plate reader.

[2] = parameters: method as in Bradshaw et al, 2002; details: in vivo, compound 2 regenerated from lysylamide prodrug compound 2b; ref Bradshaw et al, 2002; cited from earlier work
SF-295 = experiment: NCI in vitro cytotoxicity assay (SRB), SF-295; assay type: cell-based; details: Homo sapiens, 48 h exposure, sulforhodamine B assay, mean graph, read-out: Log10 GI50 (SF-295) (converted)
Protocol: as §1

MDA-N = experiment: NCI in vitro cytotoxicity assay (SRB), MDA-N; assay type: cell-based; details: Homo sapiens, 48 h exposure, sulforhodamine B assay, mean graph, read-out: Log10 GI50 (MDA-N) (converted)
Protocol: as §1

OVCAR-4 = experiment: NCI in vitro cytotoxicity assay (SRB), OVCAR-4; assay type: cell-based; details: Homo sapiens, 48 h exposure, sulforhodamine B assay, mean graph, read-out: Log10 GI50 (OVCAR-4) (converted)
Protocol: as §1

[3] = tested on: breast and ovarian xenografts; parameters: method as in Bradshaw et al, 2002; details: in vivo; ref Bradshaw et al, 2002; cited from earlier work
HCC-2998 = experiment: NCI in vitro cytotoxicity assay (SRB), HCC-2998; assay type: cell-based; details: Homo sapiens, 48 h exposure, sulforhodamine B assay, mean graph, read-out: Log10 GI50 (HCC-2998) (converted)
Protocol: as §1

[4] = tested on: CYP1A1 protein expression in IGROV-1 cells; experiment: Western blot of CYP1A1 protein, IGROV-1 lysates; assay type: cell-based, human; details: 10 nM to 10 μM, 24 h, result not shown
Protocol: Whole cell lysates were prepared for examination of CYP1A1 protein expression from untreated MCF-7, IGROV-1 and HCT 116 cultures and following exposure of cells to compounds 1, 2, 2a, 2b, 3, 3a, 3b, 4, 4a and 4b. Following protein determination (n=3, [Bradford, 1976]) and addition of sample buffer, samples were boiled at 95°C for 5 min and solubilised proteins (50 μg) were separated by sodium dodecyl sulphate (SDS) polyacrylamide gel (10%) electrophoresis. Proteins were electroblotted to polyvinylidene difluoride (PVDF) membranes and probed for CYP1A1 protein with polyclonal antiserum specific for human CYP1A1/1A2 (Gentest Corporation). Secondary antibody was conjugated to alkaline phosphatase, and CYP1A1 was detected following brief (<10 min) incubation with bromochloroindolyl phosphate and nitro-blue tetrazolium in alkaline phosphatase buffer. Molecular weight markers and a positive control of recombinant CYP1A1 (Gentest Corporation), included in all blots, confirmed detection of 52 kDa CYP1A1 protein.

GI50 [1] [µM]	CYP1A1 protein expression (Western blot) [4]	Compound	GI50 (LOX IMVI) [µM]	GI50 (PC-3) [µM]	Biotransformation products of liberated parent amine in media (MCF-7 cells)	Persistence of plasma concentrations sufficient for cytocidal activity against human mammary carcinoma cells [2] [h]	GI50 (SF-295) [µM]	GI50 (MDA-N) [µM]	GI50 (OVCAR-4) [µM]	Growth of breast and ovarian xenografts [3]	GI50 (HCC-2998) [µM]
< 0.0001		Cc1cc(-c2nc3cc(F)ccc3s2)ccc1N [Compound 2, 2-(4-Amino-3-methylphenyl)-5-fluorobenzothiazole]	> 100	23.4	No biotransformation products could be detected	> 6	20.9	> 100			
0.0391	clearly observed	Cc1cc(-c2nc3cc(F)ccc3s2)ccc1NC(=O)[C@@H](N)CCCCN [Compound 2b]	2	12.6					2.04	suppresses significantly	0.741
